We go through 25 compounds from US8906852B2 (MethylGene Inc., priority 2010, dated 2014).

Assay [1] deals with CNV progression. Description: In vivo choroidal neovascularization (CNV) model, laser-induced, intravitreal injection. On the set-up: species or system Male Brown-Norway rats. To be noted: rat, 10 nmol/eye injected on Day 3, CNV area on Day 10, vs vehicle; for inhibition in vivo at 10 nmol/eye: 240 h. The text has this:
This test measures the capacity of compounds to inhibit CNV progression. CNV is the main cause of severe vision loss in patients suffering from age-related macular degeneration (AMD).
Male Brown-Norway rats (Japan Clea Co., Ltd.) were used in these studies.
Rats were anesthetized by intraperitoneal injection of pentobarbital, and the right pupil was dilated with 0.5% tropicamide and 0.5% phenylephrine hydrochloride. The right eye received 6 laser burns between retinal vessels using a slit lamp delivery system of Green laser Photocoagulator (Nidex Inc., Japan), and microscope slide glass with Healon™ (AMO Inc) used as a contact lens. The laser power was 100 or 200 mW for 0.1 second and spot diameter was 100 μm. At the time of laser burn, bubble production was observed, which is an indication of rupture of Bruch's membrane which is important for CNV generation.
Rats were divided into the groups based on their body weight using SAS software (SAS institute Japan, R8.1) after laser irradiation (Day 0). After animals were anesthetized, and the right pupil dilated (as above mentioned), the right eye of the animal received the compound or vehicle by an injection (10 μL/eye) at doses of 10 or 3 nmol/eye on Day 3. The compounds were dissolved or suspended in CBS, PBS, or other adequate vehicles before injection.
On Day 10, the animals were anesthetized with ether, and high molecular weight fluorescein isothiocyanate (FITC)-dextran (SIGMA, 2×10^6 MW) was injected via a tail vein (20 mg/rat). About 30 min after FITC-dextran injection, animals were euthanized by ether or carbon dioxide, and the eyes were removed and fixed with 10% formaline neutral buffer solution. After over 1 hour of fixation, RPE-choroid-sclera flat mounts were obtained by removing cornea, lens and retina from the eyeballs. The flat mounts were mounted in 50% glycerol on a microscope slide, and the portion burned by laser was photographed using a fluorescence microscope (Nikon Corporation, excitation filter:465-495 nm, absorption filter:515-555 nm). The CNV area was obtained by measurement of hyper-fluorescence area observed on the photograph using Scion image.
The average CNV area of 6 burns was used as an individual value of CNV area, and the average CNV area of compound treated group was compared with that of the vehicle-treated group.

In assay [2] the target is T1, VEGFR/KDR (Homo sapiens, UniProt P35968).
T1 construct: made in house; host or cells: Sf9 cells (Spodoptera frugiperda), baculovirus
In words: VEGFR/KDR kinase inhibition, DELFIA assay. To be noted: ATP 0.6 uM (2x Km), enzyme 5 nM. In kind it is biochemical. The method in brief: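 DELFIA time-resolved fluorescence readout using Europium-tagged anti-phosphotyrosine antibody after EDTA stop. Kinase reaction on plate-bound poly(Glu4,Tyr) ran 10-30 min at 30° C with 5 nM enzyme and 0.6 uM ATP (2× Km), following 4 min on-ice pre-incubation with compound; IC50 over a concentration range.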

T1 sequence (P35968 806-1356): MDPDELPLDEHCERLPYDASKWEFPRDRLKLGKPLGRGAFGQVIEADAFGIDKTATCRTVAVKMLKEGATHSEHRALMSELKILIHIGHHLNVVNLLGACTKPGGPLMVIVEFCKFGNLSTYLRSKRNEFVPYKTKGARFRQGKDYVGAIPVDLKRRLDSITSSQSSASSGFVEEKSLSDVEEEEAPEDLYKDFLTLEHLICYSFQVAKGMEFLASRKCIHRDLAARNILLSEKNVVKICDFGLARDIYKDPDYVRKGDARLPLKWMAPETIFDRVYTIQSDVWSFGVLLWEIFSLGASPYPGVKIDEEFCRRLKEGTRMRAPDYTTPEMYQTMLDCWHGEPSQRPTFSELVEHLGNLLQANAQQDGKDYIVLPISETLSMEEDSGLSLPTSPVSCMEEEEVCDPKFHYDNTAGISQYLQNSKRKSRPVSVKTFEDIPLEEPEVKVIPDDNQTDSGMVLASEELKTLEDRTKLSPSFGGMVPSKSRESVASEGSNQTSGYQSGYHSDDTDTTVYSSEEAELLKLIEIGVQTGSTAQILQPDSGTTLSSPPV

In the case of “2-cyclopropyl-N-(3-fluoro-4-(2-(5-((N- (2-methoxyethyl)-acetamido)methyl)pyridin-2- yl)thieno[3,2-b]-pyridin-7-yloxy)phenyl)-acetamide [Compound 42]”, the “Inhibition of CNV progression” value in assay [1] is recorded as “A (greater than or equal to 60% inhibition)”.
`CNC(=O)N(CCOC)Cc1ccc(-c2cc3nccc(Oc4ccc(NC(=O)NC5CC5)cc4F)c3s2)nc1` [Compound 3, N-[3-((6-(7-(4-(3-cyclopropylureido)-2-fluorophenoxy)thieno[3,2-b]pyridin-2-yl)pyridin-3-yl)methyl)]-N-(1-methyl)-N-[3-(2-methoxyethyl)]urea]: the IC50 in assay [2] was less than 50 nM. Besides, the “Inhibition of CNV progression” value in assay [1] is recorded as “A (greater than or equal to 60% inhibition)”.
In turn, `COCCN(Cc1ccc(-c2cc3nccc(Oc4ccc(NC(=O)NC5CC5)cc4F)c3s2)nc1)C(N)=O` [Compound 5, N-[3-((6-(7-(4-(3-cyclopropylureido)-2-fluorophenoxy)thieno[3,2-b]pyridin-2-yl)pyridin-3-yl)methyl)]-N-[3-(2-methoxyethyl)]urea] yielded an IC50 in assay [2] of less than 50 nM. Besides, the inhibition in vivo at 10 nmol/eye in assay [1] was in the range of 40 to 60%.
`COCCN(C=N)Cc1ccc(-c2cc3nccc(Oc4ccc(NC(=O)NC5CC5)cc4F)c3s2)nc1` [Compound 7, N-((6-(7-(4-(3-cyclopropylureido)-2-fluorophenoxy)thieno[3,2-b]pyridin-2-yl)pyridin-3-yl)methyl)-N-(2-methoxyethyl)formimidamide] yielded an IC50 in assay [2] of less than 50 nM. For the same compound, the inhibition in vivo at 10 nmol/eye in assay [1] was not below 60%.
Turning to `O=C(Nc1ccc(Oc2ccnc3cc(-c4ccc(CNCCO)cn4)sc23)c(F)c1)NC1CC1` [Compound 9, 1-cyclopropyl-3-(3-fluoro-4-(2-(5-((2-hydroxyethylamino)methyl)pyridin-2-yl)-thieno[3,2-b]pyridin-7-yloxy)phenyl)urea], the IC50 in assay [2] was less than 50 nM. Also, the inhibition in vivo at 10 nmol/eye in assay [1] was not below 60%.
On to `COCCNCc1ccc(-c2cc3nccc(Oc4ccc(NC(=O)NC5CC5)c(F)c4F)c3s2)nc1` [Compound 25, 1-cyclopropyl-3-(2,3-difluoro-4-(2-(5-((2-methoxyethylamino)methyl)pyridin-2-yl)thieno[3,2-b]pyridin-7-yloxy)phenyl)urea], for which the IC50 in assay [2] is less than 50 nM. In addition, the inhibition in vivo at 10 nmol/eye in assay [1] was not below 60%.
Consider `CCNC(=O)N(CCOCCOCCOCCOC)Cc1ccc(-c2cc3nccc(Oc4ccc(NC(=O)NC5CC5)cc4F)c3s2)nc1` [Compound 36, N-[3-((6-(7-(4-(3-cyclopropylureido)-2-fluorophenoxy)-thieno[3,2-b]-pyridin-2-yl)pyridin-3-yl)methyl)]-N-(1-ethyl)-N-[3-(2,5,8,11-tetraoxatridecan-13-yl)]urea], for which, in assay [2], the IC50 was less than 50 nM. Besides, the inhibition in vivo at 10 nmol/eye in assay [1] was in the range of 40 to 60%.
In turn, `COCCN(CCc1ccc(-c2cc3nccc(Oc4ccc(NC(=O)NC5CC5)cc4F)c3s2)nc1)C(C)=O` [Compound 41, N-(2-(6-(7-(4-(3-cyclopropylureido)-2-fluorophcnoxy)-thieno[3,2-b]-pyridin-2-yl)pyridin-3-yl)ethyl)-N-(2-methoxyethyl)-acetamide] registered a 50% inhibitory concentration (IC50) in assay [2] of less than 50 nM. Moreover, in assay [1], the inhibition in vivo at 10 nmol/eye is 40 to 60%.
`CC(=O)N(CCS(C)(=O)=O)Cc1ccc(-c2cc3nccc(Oc4ccc(NC(=O)NC5CC5)cc4F)c3s2)nc1` [Compound 43, N-((6-(7-(4-(3-cyclopropylureido)-2-fluorophenoxy)thieno[3,2-b]pyridin-2-yi)pyridin-3-yl)methyl)-N-(2-(methylsulfonyl)ethyl)acetamide] yielded an IC50 in assay [2] of less than 50 nM. The compound also displayed an inhibition in vivo at 10 nmol/eye in assay [1] of 40 to 60%.
For the compound `COCCOCCOCCOCCN(Cc1ccc(-c2cc3nccc(Oc4ccc(NC(=O)NC5CC5)cc4F)c3s2)nc1)C(=O)CO` [Compound 45], in assay [2], the IC50 is less than 50 nM. Further, in assay [1], the inhibition in vivo at 10 nmol/eye was 40 to 60%.
For the compound `O=C(Nc1ccc(Oc2ccnc3cc(-c4ccc(CN5CCNCC5)cn4)sc23)c(F)c1)NC1CC1` [Compound 49, 1-cyclopropyl-3-(3-fluoro-4-(2-(5-(piperazin-1-ylmethyl)pyridin-2-yl)thieno[3,2-b]-pyridin-7-yloxy)phenyl)urea], the IC50 in assay [2] was less than 50 nM. In assay [1], this compound showed an inhibition in vivo at 10 nmol/eye not below 60%.
The matching figures for `CN1CCN(Cc2ccc(-c3cc4nccc(Oc5ccc(NC(=O)NC6CC6)cc5F)c4s3)nc2)CC1` [Compound 51, 1-cyclopropyl-3-(3-fluoro-4-(2-(5-((4-methylpiperazin-1-yl)methyl)pyridin-2-yl)thieno[3,2-b]-pyridin-7-yloxy)phenyl)urea]: less than 50 nM and not below 60%.
In assay [2], `O=C(Nc1ccc(Oc2ccnc3cc(-c4ccc(C(=O)N5CCN(CCO)CC5)cn4)sc23)c(F)c1)NC1CC1` [Compound 581, 1-cyclopropyl-3-(3-fluoro-4-(2-(5-(4-(2-hydroxyethyl)piperazine-1-carbonyl)pyridin-2-yl)thieno[3,2-b]pyridin-7-yloxy)phenyl)urea] came in with an IC50 of less than 50 nM.
Turning to `C[C@H]1CN(Cc2ccc(-c3cc4nccc(Oc5ccc(NC(=O)NC6CC6)cc5F)c4s3)nc2)CCN1CCO` [Compound 582, (S)-1-cyclopropyl-3-(3-fluoro-4-(2-(5-((4-(2-hydroxyethyl)-3-methylpiperazin-1-yl)methyl)pyridin-2-yl)thieno[3,2-b]pyridin-7-yloxy)phenyl)urea], the IC50 in assay [2] is less than 50 nM.
The compound `C[C@@H]1CN(Cc2ccc(-c3cc4nccc(Oc5ccc(NC(=O)NC6CC6)cc5F)c4s3)nc2)C[C@H](C)N1CCO` [Compound 583] had a concentration for half-maximal inhibition (IC50) in assay [2] of less than 50 nM.
Regarding `O=C(Nc1ccc(Oc2ccnc3cc(-c4ccc(C(=O)N5CCN(C(=O)CO)CC5)cn4)sc23)c(F)c1)NC1CC1` [Compound 584], in assay [2], the IC50 is less than 50 nM.
With `COCCOCCOCC(=O)N1CCN(Cc2ccc(-c3cc4nccc(Oc5ccc(NC(=O)NC6CC6)cc5F)c4s3)nc2)CC1` [Compound 588, 1-Cyclopropyl-3-(3-fluoro-4-(2-(5-((4-(2-(2-(2-methoxyethoxy)ethoxy)acetyl)piperazin-1-yl)methyl)pyridin-2-yl)thieno[3,2-b]pyridin-7-yloxy)phenyl)urea], the 50% inhibitory concentration (IC50) in assay [2] is less than 50 nM.
For the compound `COCCOCC(=O)N1CCN(Cc2ccc(-c3cc4nccc(Oc5ccc(NC(=O)NC6CC6)cc5F)c4s3)nc2)CC1` [Compound 589], in assay [2], the IC50 is less than 50 nM.
Consider `COCCOCCOCCNC(=O)N1CCN(Cc2ccc(-c3cc4nccc(Oc5ccc(NC(=O)NC6CC6)cc5F)c4s3)nc2)CC1` [Compound 596, 4-((6-(7-(4-(3-Cyclopropylureido)-2-fluorophenoxy)thieno[3,2-b]pyridin-2-yl)pyridin-3-yl)methyl)-N-(2-(2-(2-methoxyethoxy)ethoxy)ethyl)piperazine-1-carboxamide], for which, in assay [2], the IC50 was less than 50 nM.
Take `O=C(Nc1ccc(Oc2ccnc3cc(-c4ccc(CN5CCC(O)CC5)cn4)sc23)c(F)c1)NC1CC1` [Compound 599, 1-Cyclopropyl-3-(3-fluoro-4-(2-(5-((4-hydroxypiperidin-1-yl)methyl)pyridin-2-yl)thieno[3,2-b]pyridin-7-yloxy)phenyl)urea]: in assay [2], the IC50 is less than 50 nM.
In assay [2], `CC(=O)N(Cc1ccc(-c2cc3nccc(Oc4ccc(NC(=O)NC5CC5)cc4F)c3s2)nc1)C1CCNCC1` [Compound 609, N-((6-(7-(4-(3-Cyclopropylureido)-2-fluorophenoxy)thieno[3,2-b]pyridin-2-yl)pyridin-3-yl)methyl)-N-(piperidin-4-yl)acetamide] displayed an IC50 of less than 50 nM.
Compound `COCCNCCn1cnc(-c2cc3nccc(Oc4ccc(NC(=O)NC5CC5)cc4F)c3s2)c1` [compound 253] yielded a concentration for half-maximal inhibition (IC50) in assay [2] of less than 50 nM.
On to “(S)-1-(4-(2-(5-((3-amino-2-oxopyrrolidin-1-yl)methyl)pyridin-2-yl)thieno[3,2-b]pyridin-7-yloxy)-3-fluorophenyl)-3-cyclopropylurea [Compound 108]”, for which the “Inhibition of CNV progression” value in assay [1] is given as “A (greater than or equal to 60% inhibition)”.
For “N-(4-(7-(4-(3-cyclopropylureido)-2-fluorophenoxy)thieno[3,2-b]pyridin-2-yl)benzyl)-2-(2-methoxyethoxy)-N-(2-methoxyethyl)acetamide [Compound 115]”, in assay [2], the IC50 was less than 50 nM.
For “N-((6-(7-(4-(3-cyclopropylureido)-2-fluorophenoxy)thieno[3,2-b]pyridin-2-yl)pyridin-3-yl)methyl)-N-(2-methoxyethyl)formimidamide [Compound 7]”, in assay [1], the “Inhibition of CNV progression” value is listed as “B (≧40% to <60% inhibition)”.
